Drawing on patent publication US6407130B1, “Carboxamide-substituted benzimidazoles having tryptase-inhibiting activity” (Boehringer Ingelheim Pharma KG, priority 1999, dated 2002), this text covers melting point and IC50 for six molecules.

Counter-ions that a name gives are not always drawn.

System in one series: not given
Experiment: not given
Settings: not given
In the case of `Cn1c(CCc2ccc(C(=N)N)cc2)nc2cc(NC(=O)C(N)Cc3ccc(C(=N)N)cc3)ccc21` (stereo not drawn) (as salt: hydrochloride) [Example 4, N-{2-[2-(4-Amidinophenyl)-ethyl]-1-methyl-benzimidazol-5-yl}-[2-amino-3-(p-amidinophenyl)-propionic Acid Amide]-trihydrochloride], the melting point was > 260 °C.

As for `CC(C)CN(C(=O)CCc1ccc(C(=N)N)cc1)c1ccc2c(c1)nc(CCc1ccc(C(=N)N)cc1)n2C` (as salt: hydrochloride) [Example 5, N-{2-[2-(4-Amidinophenyl)-ethyl]-1-methyl-benzimidazol-5-yl}-N-isobutyl-[3-(4-amidinophenyl)-propionamide]-dihydrochloride], the melting point is > 220 °C.

The target of a further series is T1, rh beta tryptase (Homo sapiens, UniProt Q15661).
T1 construct: purchased Promega
T1 sequence (Q15661 31-275): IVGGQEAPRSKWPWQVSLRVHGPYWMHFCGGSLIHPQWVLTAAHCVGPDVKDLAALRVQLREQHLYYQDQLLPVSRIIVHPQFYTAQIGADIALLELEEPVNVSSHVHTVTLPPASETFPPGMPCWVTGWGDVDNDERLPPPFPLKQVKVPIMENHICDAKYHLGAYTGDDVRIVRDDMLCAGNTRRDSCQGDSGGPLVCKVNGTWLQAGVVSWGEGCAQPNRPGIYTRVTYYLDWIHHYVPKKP
The series is described as follows: tryptase inhibition test (cleavage of N-p-tosyl-Gly-Pro-Lys-para-nitroaniline, p-nitroaniline measured at 405 nm). It is filed as biochemical. The conditions noted are these: Tris HCl buffer pH 7.4 with calcium and heparin; substrate 0.6 mM; 5 minutes' pre-incubation, 5 minutes incubation at 37° C. In short, it runs like this: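 Run in 100 mM Tris HCl, pH 7.4, with 5 mM calcium and […] heparin, enzyme at 0.91 U/ml and 0.6 mM substrate. Compounds pre-incubated 5 min, then substrate added; p-nitroaniline read after 5 min at 37° C. Screening at 10 μM gives % inhibition; IC50 determined where inhibition exceeds 70%.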
For the molecule `Cn1c(CCc2ccc(C(=N)N)cc2)nc2cc(N(Cc3cccc4ccccc34)C(=O)CCCCN)ccc21` [Example 24, N-{2-[2-(4-Amidinophenyl)-ethyl]-1-methyl-benzimidazol-5-yl}-N-( - naphthylmethyl)-[5-amino-pentanoic acid amide]-dihydrochloride], the IC50 was 29 nM.

Regarding `Cn1c(CCc2ccc(C(=N)N)cc2)nc2cc(N(Cc3cccc4ccccc34)C(=O)CNCc3cccc(C(=N)N)c3)ccc21` [Example 8, N-{2-[2-(4-Amidinophenyl)-ethyl]-1-methylbenzimidazol-5-yl}-N-(α-naphthylmethyl)-[3-amidinobenzylaminoacetamide]-trihydrochloride], the half-inhibitory concentration (IC50) turned out to be 16 nM.

For the molecule `CN(C)CCCC(=O)N(Cc1cccc2ccccc12)c1ccc2c(c1)nc(CCc1ccc(C(=N)N)cc1)n2C` [Example 29, N-{2-[2-(4-Amidinophenyl)-ethyl]-1-methyl-benzimidazol-5-yl}-N-( - naphthylmethyl)-[4-dimethylamino-butanoic acid amide]-dihydrochloride], the concentration for half-maximal inhibition (IC50) came to 38 nM.

For the molecule `Cn1c(CCc2ccc(C(=N)N)cc2)nc2cc(N(Cc3cccc4ccccc34)C(=O)CO)ccc21` [Example 77, N-{2-[2-(4-Amidinophenyl)-ethyl]-1-methyl-benzimidazol-5-yl}-N-(- naphthylmethyl)-[3-hydroxy-acetamide]-hydrochloride], the IC50 was 110 nM.
